Data: patent publication US8129514B2, “Nucleotide sequences for regulating gene expression in plant trichomes and constructs and methods utilizing same” (Evogene Ltd., priority 2003, dated 2012)
Marks after values point to notes of the source that are not given here.

Experiments:
PPO [1] = experiment: Decrease of PPO activity (browning of supernatant) by antioxidants in ground tomato leaves; type: biochemical, Tomato (L. esculentum); conditions: for Efficient concentration (minimal concentration that enables a decrease of 95% of PPO activity): w/v, 10 mM Tris-HCl pH=8, about 2 hrs at 4° C.
Method: Three compounds were tested: citric acid, ascorbic acid and sodium bisulfite. Different concentrations of chemicals were used to identify the chemical with the highest antioxidant activity. Tomato (L. esculentum) young leaves (about 100 mg) were grinded at 4° C. in 200 μl of 10 mM Tris-HCl pH=8 buffer containing appropriate concentration of antioxidant (0.01-2.0% w/v), incubated for about 2 hrs at 4° C. and centrifuged at 14,000 rpm for 3 min in order to separate leaves-debris and liquid fraction. Decreasing of PPO activity was inspected by eliminating the production of brown color of the supernatant as a result of the oxidation of polyphenols. Table 8 below summarizes the minimal concentration that enables a decrease of 95% of PPO activity.
A buffer without any antioxidant was used as a negative control.

PPO [2] = conditions: positive control at 200 mM; PPO harvested from trichome cells; cited from earlier work
tomato trichome = experiment: GUS staining of leaves of T1 tomato plants carrying promoter-GUS constructs; type: in vivo, tomato (Lycopersicon esculentum cv. Micro-Tom)
Method: Tomato transformation—Tomato transformation was carried out according to Fillati et al. (19). Briefly, Lycopersicon esculentum cv. Micro-Tom cotyledons were used for Agrobacterium based plant transformation. The Micro-Tom seeds were surface sterilized for 10 min in a 3% sodium hypochlorite solution. The seeds were washed with DDW three times and soaked for three hours in fresh DDW, then plated into 0.5 L container with Nitsch medium, containing MS salts, 3% sucrose, Nitsch vitamins and 0.8% plant agar (Duchefa, Netherland). The PH was adjusted to 5.8 prior to autoclaving for 20 min at 121° C. 50 seeds where plated on 0.5 L sterilized container containing the germination medium and left at 25° C. in culture room, 16/8 hrs light/dark cycles, under light intensity of (150 μEm^−2S). Seedlings where grown for 8 days.
A. GUS staining—Gus staining of tomato and tobacco plants was effected as previously described (15). Briefly: Leaves were fixed in 90% ice cold acetone for 15-20 minutes (on ice), followed by removal of acetone and a double tissue rinsing with the Working Solution [25 mM Sodium Phosphate (Sigma, USA) buffer pH=7, Ferricyanide (Sigma, USA) 1.25 mM, Ferrocyanide (Sigma, USA) 1.25 mM, Triton X-100 (Sigma, USA) 0.25%, EDTA (BioLab) 0.25 mM] for 15-20 minutes. Rinse solution was removed, replaced with Staining solution [Working solution with 5-bromo-4-chloro-3-indolyl-β-D-glucuronic acid (X-GlcA, Duchefa) solubilized in N,N-Dimethylformamide (BioLab) 1.5 mg/ml and Dithiothreitol (DTT, Bio Lab) 100 mM] and incubated in the dark (tubes wrapped with aluminum foil) over night at 37° C. Distaining was effected by sinking the plant tissue in 70% ethanol and heating at 50° C. for ˜2 hours. The distaining step was repeated until the plant tissue became transparent except the blue stained regions. Distained plants were stored in 70% ethanol (BioLab) at room temperature.
GUS staining was performed on leaves of T1 tomato and tobacco plants transfected with a binary vector including putative trichome specific promoters upstream of a GUS gene. […]

O=C(O)CC(O)(CC(=O)O)C(=O)O [Citric acid]
Efficient concentration (minimal concentration that enables a decrease of 95% of PPO activity) (PPO [1]): 1.0%

O=C1O[C@H]([C@@H](O)CO)C(O)=C1O [Ascorbic acid]
Efficient concentration (minimal concentration that enables a decrease of 95% of PPO activity) (PPO [1]): 1.0%*

O=S([O-])O.[Na+] [Sodium bisulfite]
PPO activity as indicated by medium browning (PPO [1]; increasing concentrations, FIG. 3): decreased PPO activity
Efficient concentration (minimal concentration that enables a decrease of 95% of PPO activity) (PPO [1]): 0.05%

O[C@H](CS)[C@H](O)CS (racemic) [DDT, Dithiothreitol]
PPO activity (PPO [2]): eliminate PPO activity

B1: TR27-P: previously described cotton promoter, G. barbadense var. Pima 15, SEQ ID NO: 39 (nucleic acid)
DNA: AAGCTTTAAGTTTAAATCCTATTGTAGTGTTATTTATAAAAAAAATGAGAAAAGATAAAAATACCTTTATATTAATATTTGTTATATTATAAAATAAGGATATTTTTAACAAATTTTCAATTGAATAGATGTTTGGGTGAATCCTAATACCAATTAAAGTATATATACAGCAAACAATTATAAATCAAATTACTTTTAATAAAATGCTATCATTCAATTCAATGACAATAAATGCATTTATAAATACATCAAATGTAAATCTCATGTTTATAAGAAAACACGTAGAAAAAAAGTTAAACCAATATTTGAGTCCTAGCTGTGGAGGCATGATTGAGTGAAATCAAATGGACGCTGGTTTTAATTCTATTGAAAGAAACCAATAATCACGTAGGTTGGCAGTTGAACATAATTGAATGGTCTCAACTTTTAATGTGGTGTTAATGTTTGGATCGGATAATCTCAACTTACCTAATAGCTAGGAAAGTAAAATTCAAACATCACCCGCTACTACTTTTGGCTATAAAAACCCTCCTACCCTCAAGCCCTAACCACGACAATCACCAATAGTACTACTACTCCAAGCAAGTATTTTCCTTACACGTTTGTTTTTCTTGTGATAATGGATCC
modifications: Gossypium barbadense
Avg grade (tomato trichome; GUS staining, tomato T1 generation, signal peptide: No): 0.4
GUS expression pattern (tomato trichome; GUS under the regulation of the promoter, FIGS. 1d-h): expressed in a trichome-gland specific manner
effectiveness in facilitating expression of heterologous genes in the tomato trichome (tomato trichome; conclusion from Table 6): most effective
